According to patent US8323659B2, “Method for diagnosing and/or treating tumor” (Keio University, priority 2008, dated 2012):

What was measured:
[1] = test system: Clone F3 (Panc-1 cells in which the snail gene was forcibly expressed); assay: Cell invasion capability of Clone F3 (matrigel Invasion Chamber); assay type: cell-based, human; conditions: F3 cells transfected with siRNA; matrigel-coated membrane, 4 hours; FIG. 3B
Text: (§1) First, 5×10^4 of F3 cells, as well as F3 cells (#1 to #4, Invitrogen Inc.) that had been cultured for 2 to 3 days after transfected with each of the 4 kinds of HERV-H env gene specific-siRNAs (shown below) by PEI complex method (Polyplus Inc.), were counted. The numbers of cells as plotted in the graph of FIG. 3A were taken as a standard of the growth rates.
Then, the recovered cells were placed on the upper surface of the Invasion Chamber (pore size 8 μm, BD Bioscience Inc.) whose membrane was coated with matrigel, and cultured for 4 hours (37° C., 5% CO2). After cells remaining on the upper surface of the membrane were removed completely, the cells invaded into the lower surface of the membrane were fixed and stained with Crystal Violet solution and counted under a microscope to evaluate the cell invasion capability.
(§2) For control experiments, F3 cells (Control) transfected with a control oligonucleotide from Invitrogen, F3 cells (siRNA-snail) transfected with snail gene specific-siRNA (SiRNA-snail #1) (shown below) and a Panc-1 cell line (Parent) were used.

[2] = test system: Clone F3 (Panc-1 cells in which the snail gene was forcibly expressed); assay: Cell growth of Clone F3 after siRNA transfection; assay type: cell-based, human; conditions: F3 cells cultured 2 to 3 days after siRNA transfection; in contrast to untreated cells and control siRNA; FIG. 3A
Description: First, snail cDNA (CDS 71-865, 795 bp) was amplified by PCR using the Panc-1 cells that had been stimulated with TGF-beta known as an EMT-inducing agent, and was inserted into the EcoR I-Xho I restriction sites of pcDNA3.1 (+) plasmid vector (Invitrogen Inc.) having a G418 resistance gene. The vector was introduced into the tumor cell lines by electroporation. The cells were cultured for 2 weeks and then drug-resistant cells were selected with G418 (2 mg/mL) and cloned.
In this example, the expression of HERV-H env gene was suppressed in Clone F3 and cell invasion capability and growth rate were measured.
as §1, §2

[3] = test system: CD8+ cells of genetically modified mice expressing HLA-A24 (A24-Tg); assay: Gamma interferon production by CD8+ cells of peptide-immunized HLA-A24 transgenic mice; assay type: cell-based, mouse; conditions: for gamma interferon producing activity at lower concentrations: peptide below 2 μg/mL, normalized to 10 μg/mL as 100%
Description: First, dendritic cell precursors were isolated from bone marrow cells of A24-Tg mice using LineagePanel Streptavidin Plus Magnetic Particles-DM (BD Biosciences Inc.) and cultured for 6 days in the presence of GM-CSF (10 ng/mL, Peprotech Inc.) to induce their differentiation. The dendritic cells thus obtained were cultured for 6 hours in the presence of each of the peptides having the sequences shown below (10 μg/mL, synthesized by Invitrogen Inc.), and then injected subcutaneously to genetically modified mice expressing HLA-A24 at 5×10^6 cells per mouse for immunization. In addition, SAGE which has been identified as a testicular tumor antigen and for which a HLA-A24-restricted peptide has been established, was used for a positive control experiment (Cancer Research 60:3848-3855, 2000), and dendritic cells not stimulated by a peptide were used as the negative control.
Spleen cells were collected from the mice one week after the immunization with each of the peptides, and were cultured under the stimulation by 10 μg/mL of the same peptide as used for immunization for 6 days, from which CD8+ cells were isolated by the MACS method using antibody-coupled magnetic beads from Miltenyi Inc . In order to produce cytokine at a higher level, the CD8+ cells (1×10^6) were further stimulated for 24 hours by 0.08 to 10 μg/mL of the same peptide in the presence of APC (1×10^7 cells) that was obtained by collecting the spleen cells freshly from a HLA-A24 expressing-genetically modified mouse and then inactivating the cells with mitomycin C. Amounts of gamma interferon contained in the culture supernatants were measured by Cytometric Bead Array kit for mouse (BD Biosciences Inc.).

[4] = test system: CD8+ cells from PBMC of healthy individuals positive for HLA-A24; assay: Gamma interferon production by peptide-induced human CD8+ cells; assay type: cell-based; conditions: IL-2 and APC; for gamma interferon production capability: FIG. 5D
Description: (§3) First, blood was collected from two healthy individuals positive for HLA-A24, to which 1/10 volume of 4% sodium citrate was added, and was overlaid on Ficoll-Paque (Amersham Inc.) and centrifuged (1500 rpm, 20 min, room temperature). The fraction of monocytes (PBMC) separated in the interface was cultured for 6 days under the stimulation with 10 μg/mL of each peptide, from which CD8+ cells were isolated by the MACS method using antibody-coupled magnetic beads (Miltenyi Inc). In order to estimate cytotoxic activity of the isolated CD8+ cells, they were cocultured with human colon cancer cell line COLO320 (HLA-A24^+ SAGE^+ HERV-H ^+ Env^+) as the target cell at a mixing ratio of [CD8+ cell:COLO320 tumor cell=50:1] for 6 hours. The killed tumor cells were detected using Immunocyto Cytotoxity Detection Kit (MBL inc.), and tumor-specific toxicity rates were calculated according to the protocol attached to the kit. Results are plotted in the graph of FIG. 5A.
In order to evaluate the gamma interferon production capability, 1×10^6 of CD8+ cells were stimulated by 1 or 10 μg/mL of each peptide for 24 hours in the presence of IL-2 (100 U/mL, Peprotech Inc.) and APC (5×10^6 cells) which was obtained by collecting the PBMCs freshly from a healthy individual and then inactivating them with mitomycin C. Amounts of gamma interferon contained in the culture supernatants were measured by Cytometric Bead Array kit for human (BD Biosciences Inc.). Results are plotted in the graph of FIG. 5B.
The gamma interferon production capability was evaluated by stimulating CD8+ cells with 0.1, 1 or 10 μg/mL of each peptide in the presence of IL-2 and APC. The results are plotted in the graph of FIG. 5D.

[5] = test system: PKH67-labeled CD8+ cells in SCID mice; assay: In vivo proliferation of peptide-induced CD8+ cells in immunodeficiency mice; design: species or system mouse; conditions: FIG. 8; for content of CD8+ cells in vivo: SCID mice, peptide 100 μg per animal via tail vein, 5 days, spleen and peripheral blood, versus no peptide administered
Description: In the same method as described in Example 4, CD8+ cells were obtained by culturing PBMCs with the stimulation of HERV-H#1 (final concentration 10 μg/mL). The CD8+ cells for a control group were obtained by culturing under the stimulation by NY-ESO-1 peptide (SEQ ID NO: 23) in place of HERV-H#1 at the same concentration. The CD8+ cells thus obtained were fluorescence-labeled by mixing with a fluorescent dye PKH67 (Sigma Corp.) and incubating for 10 min.
The PKH67-labeled CD8+ cells (2×10^6 cells), PBMCs (2×10^7 cells) collected from the same healthy individual, and a peptide (HERV-H Env or NY-ESO-1 (control groups) at 100 μg per animal) were injected via the tail vein of immunodeficiency mice (the SCID mice, CLEA Japan Inc.). Spleen cells and peripheral blood cells were collected from the mice on 5 days after the administration, and the content of PKH67-labeled CD8+ cells was measured by flow cytometry (BD Inc.). Mice treated similarly except that no peptide was administered were used for a control experiment.

[6] = test system: human pancreatic tumor cell line Panc-1; assay: Toxicity of peptide-induced CD8+ cells (HLA-A02 positive PBMC) against Panc-1; assay type: cell-based; conditions: two HLA-A02 positive healthy individuals; FIG. 5E
[7] = test system: human colon cancer cell line COLO320; assay: Toxicity of peptide-induced CD8+ cells (HLA-A24 positive PBMC) against COLO320; assay type: cell-based
Description: as §3
The toxicity against tumor cells was evaluated by setting the ratio of CD8+ cells:COLO320 tumor cells to 6.25:1, 12.5:1, 25:1 or 50:1. The results are plotted in the graph of FIG. 5C.

[8] = lower peptide concentration (0.1 μg/mL)
[9] = peptide concentrations equal to or higher than 1 μg/mL

siRNA-snail: snail gene specific-siRNA; sense GCGAGCUGCAGGACUCUAAdTdT (SEQ ID NO: 18), antisense SEQ ID NO: 19 (sense GCGAGCUGCAGGACUCUAATT; antisense UUAGAGUCCUGCAGCUCGCTT; dTdT overhangs, further chemistry not given here)
cell invasion capability [1]: significantly reduced | cell growth (numbers of cells) [2]: strongly suppressed

NYAEPPWPL (listed as Homo sapiens) [HERV-H#3]
gamma interferon producing activity at lower concentrations ([3]; FIG. 4B): significantly reduced

FYSLLLYSL (listed as Homo sapiens) [HERV-H#2]
amounts of gamma interferon produced (comparison among the HERV-H Env peptides) ([3]; peptide 0.08 to 10 μg/mL, FIG. 4B): highest activity | gamma interferon producing activity at lower concentrations ([3]; FIG. 4B): significantly reduced

LLMWITQCF (listed as Homo sapiens) [NY-ESO-1, HLA-A24-restricted tumor antigen peptide clinically used in peptide vaccine treatments, reference compound]
gamma interferon production capability [4, 8]: significantly reduced | gamma interferon production capability [4, 9]: best production | content of CD8+ cells in vivo [5]: higher content of CD8+ cells

SYLHHTINL (listed as Homo sapiens) [HERV-H#1]
toxicity against tumor cells (killed Panc-1) [6]: highest toxicity | TCR-binding affinity ([3]; inferred from the concentration dependence of gamma interferon production, P<0.001, t-test): significantly higher than the other peptides | gamma interferon producing activity at lower concentrations ([3]; FIG. 4B): maintained | toxicity against tumor cells (COLO320) ([7]; E:T ratio equal to or more than 25:1, FIG. 5C): highest toxicity | toxicity against tumor cells (killed COLO320) ([7]; two HLA-A24 positive healthy individuals, CD8+ cell:COLO320 = 50:1, 6 hours, FIG. 5A): highest | gamma interferon production capability [4, 8]: still sufficient to induce gamma interferon production | gamma interferon production ([4]; peptide 10 μg/mL, 24 hours, FIG. 5B): significantly higher production than the other peptides | gamma interferon production capability [4, 9]: second best after NY-ESO-1 | content of CD8+ cells in vivo [5]: higher content of CD8+ cells | self-proliferation of the induced CD8+ cells ([5]; no peptide administered to the mice, versus CD8+ cells induced by NY-ESO-1 peptide): less active | proliferation activity of the induced CD8+ cells ([5]; peptides administered to the mice, versus CD8+ cells induced by NY-ESO-1 peptide): higher than that of the CD8+ cells induced by NY-ESO-1 peptide
